This note sets out measurements from publication PMC4084896 (PLoS ONE, 2014).

In brackets after ≈: the same amount, converted by molar mass.

A short description of data set [1]: MTT cytotoxicity test in AZ-AHR cells. In kind it is cell-based, human. Particulars: human; 24 h incubation, six passages; read-out: AZ-AHR viability - MTT IC50. From the text: (§1) A stably transfected gene reporter cell line AZ-AHR, derived from human hepatoma HepG2 cells transfected with a construct containing several AhR binding sites upstream of a luciferase reporter gene, was used for assessment of AhR transcriptional activity. A stably transfected gene reporter cell line AZ-GR, derived from human cervix carcinoma HeLa cells transfected with a construct containing several GR response elements upstream of a luciferase reporter gene, was used for assessment of GR transcriptional activity. Cells were incubated for 24 h with tested compounds and/or vehicle (DMSO; 0.1% v/v), in the presence or absence of TCDD (5 nM; AZ-AHR cells) or DEX (100 nM; AZ-GR cells). After the treatments, cells were lysed and luciferase activity was measured. In parallel, cell viability was determined by conventional MTT test.
(§2) Prior to the agonist or antagonist experiments, the cytotoxicity of tested compounds was assessed using the conventional MTT assay. […] The vehicle was DMSO (0.1% v/v). After the treatment, a MTT test was performed.
On the technique in general: Tetrazolium assays rely on reduction of a dye to a coloured formazan, in cell work by metabolically active cells.

Data set [2] is described as follows: MTT cytotoxicity test in primary human hepatocytes. The conditions noted are these: primary human hepatocytes, read-out: viability, % of control value. In kind it is cell-based.
Excerpt: as §1
(§3) The cells were treated for 24 h with (+)-KET, (−)-KET and commercial rac-KET (1 µM, 30 µM, 50 µM), and with TCDD (5 nM) and vehicle (DMSO; 0.1% V/V). […] In the cytotoxicity assay, we found all forms of KET highly toxic against human hepatocytes at the concentration 50 µM.

In data set [3] the target is T1, glucocorticoid receptor (GR) (Homo sapiens, UniProt P04150).
T1 sequence (P04150 1-777): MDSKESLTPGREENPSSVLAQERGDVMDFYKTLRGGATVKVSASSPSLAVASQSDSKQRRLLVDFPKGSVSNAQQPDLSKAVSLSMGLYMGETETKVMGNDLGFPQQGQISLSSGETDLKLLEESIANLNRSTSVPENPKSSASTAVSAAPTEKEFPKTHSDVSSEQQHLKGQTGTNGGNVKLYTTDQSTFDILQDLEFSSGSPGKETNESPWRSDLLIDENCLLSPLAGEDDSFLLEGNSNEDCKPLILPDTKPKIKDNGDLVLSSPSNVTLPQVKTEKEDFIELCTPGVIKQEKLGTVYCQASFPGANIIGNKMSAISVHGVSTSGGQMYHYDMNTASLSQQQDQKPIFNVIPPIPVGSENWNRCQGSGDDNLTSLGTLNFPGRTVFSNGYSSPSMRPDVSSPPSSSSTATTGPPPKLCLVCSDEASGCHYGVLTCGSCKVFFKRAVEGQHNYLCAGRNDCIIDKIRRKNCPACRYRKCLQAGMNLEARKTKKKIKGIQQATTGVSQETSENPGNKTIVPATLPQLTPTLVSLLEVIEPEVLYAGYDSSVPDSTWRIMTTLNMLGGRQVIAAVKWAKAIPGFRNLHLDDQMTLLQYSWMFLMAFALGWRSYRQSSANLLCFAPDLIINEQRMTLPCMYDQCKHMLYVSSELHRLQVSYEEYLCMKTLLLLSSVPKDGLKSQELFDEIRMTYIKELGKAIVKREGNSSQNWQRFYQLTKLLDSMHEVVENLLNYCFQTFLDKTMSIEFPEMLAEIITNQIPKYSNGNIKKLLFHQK
Kind of data set: GR gene reporter assay in AZ-GR cells, antagonist mode (DEX 100 nM). In kind it is cell-based. The conditions noted are these: 24 h; for IC50: in the presence of DEX 100 nM.
Excerpt: as §1
There is multiple evidence for the role of glucocorticoid receptor (GR) in regulation of AhR activity. […] Gene reporter assays were performed in agonist and antagonist mode (similarly as described in section 3.1.).

Data set [4] has as its system CYP1A1 catalytic activity (7-ethoxyresorufin-O-deethylase).
For another data set, the system named is AZ-AHR cells. The data set can be described thus: MTT cytotoxicity test in AZ-AHR cells. In kind it is cell-based, human. Particulars: 24 h incubation, six passages; read-out: AZ-AHR viability - MTT IC50.
Excerpt: as §1, §2

For data set [5], the system named is primary human hepatocytes. Kind of data set: MTT cytotoxicity test in primary human hepatocytes. The class given is cell-based. The conditions noted are these: 50 µM, 24 h.
Excerpt: as §1, §3

In a further data set the test system is C. albicans 1. Kind of data set: MIC assessment, microdilution. The class given is cell-based. Particulars: 48 h, 37°C, MFC same as MIC. How it is done:
(§4) Antifungal activity was assessed using the standard microdilution method determining the minimum inhibitory concentrations (MICs) of the tested samples leading to inhibition of yeast growth. Disposable microtiter plates were used for the tests. The samples were diluted in brain heart infusion broth (HiMedia). […] C. albicans, C. krusei, C. tropicalis and C. parapsilosis. […] Subsequently, 100 µL were transferred into the first microplate well and serially diluted by a factor of 2. The prepared microplates were inoculated with a standard amount of the tested Candida spp. – the inoculum density in a well was equal to 10^5 CFU/mL. […] The minimum fungicidal concentration (MFC) is the minimum concentration of the sample required to kill the yeast after a defined period of incubation. The MFCs were determined by the inoculation method. With an applicator, 10 µL were transferred from the microplate wells with defined concentrations of the tested sample and inoculated onto Sabouraud agar (Trios). The MFC was determined as the lowest concentration that inhibited the visible growth of the used yeast. For growth curve assessment, the samples were serially diluted in 96-well microtiter plates. […] Absorbance (630 nm) was measured every hour during 24 hours and the obtained values were used to plot growth curves

Another data set deals with C. albicans 978. The data set can be described thus: MIC assessment, microdilution. In kind it is cell-based. The conditions noted are these: 48 h, 37°C, MFC same as MIC. How it is done: as §4
A general note: Dilution methods test growth across graded concentrations, often in twofold steps.

For another data set, the system named is C. tropicalis 5. The data set can be described thus: MIC assessment, microdilution. In kind it is cell-based. Particulars: 48 h, 37°C, MFC same as MIC. As for the experimental part: as §4

As for `CC(=O)N1CCN(c2ccc(OCC3COC(Cn4ccnc4)(c4ccc(Cl)cc4Cl)O3)cc2)CC1` (racemic) [rac-KET, ketoconazole], in [1], the IC50 at 24 h is 67.2 ± 24.8 µM. Besides, the viability at 24 h, 50 µM in data set [2] was found to be 46%. For the same compound, in data set [3] (DEX 100 nM), the “inhibition of DEX-induced luciferase activity (in words)” value was “only weak inhibition”. In addition, the IC50 in data set [3] is above 100 µM. Further, the “EROD activity (in words)” value in [4] is on record as “increased the EROD activity in a concentration-dependent manner”.

For `CC(=O)N1CCN(c2ccc(OC[C@H]3CO[C@](Cn4ccnc4)(c4ccc(Cl)cc4Cl)O3)cc2)CC1` [(+)-KET, (2R,4S)-(+)-KET], the IC50 in the data set on AZ-AHR cells was 77.3 ± 23.9 µM; in [3], 29.6 ± 0.9 µM. The “viability, % of control value” in [5] worked out at 15%. Besides, the figures for the MIC/MFC with C. albicans 1, in the data set on C. albicans 978 and with C. tropicalis 5 were 25 µM (≈ 13.3 µg/mL), 25 µM (≈ 13.3 µg/mL) and 3.13 µM (≈ 1.66 µg/mL), respectively.

As usually defined, the IC50 is the concentration that inhibits the measured activity by half. Broadly, the viability is a per cent measure of how many cells are alive, often set against a control.
